Measured values published in patent publication US6987093B2 (priority 2001, dated 2006).
Values after ≈ are worked out from the molar mass of the structure shown. Values joined by “and” are separate entries in the source; they are usually repeats but may differ in a detail not shown here. Equal entries are not always repeated. Where two headings read alike, the source gives them in different places.

Columns and labels:
[1] = test system: Haemophilus influenzae 54A1218; assay: Gerbil middle ear infection in vivo time kill, H. influenzae 54A1218; details: for eradication: at 72 and 96 hours post-infection
[2] = test system: H. influenzae 54A1218; assay: MIC determination, H. influenzae 54A1218; format: cell-based; details: Haemophilus influenzae
Method: (§1) MIC Determinations. Streptococcus pneumoniae, S. pyogenes, E. faecalis, and H. influenzae MICs were determined using the broth microdilution procedure recommended by the NCCLS. Test trays were incubated at 35C without carbon dioxide. For testing of streptococci, the cation-adjusted Mueller-Hinton broth was supplemented with 2–3% lysed horse blood. For testing H. influenzae, freshly prepared Haemophilus Test Medium broth was used.
(§2) Bacterial Strains. • S. pneumoniae 02J1016, serotype 3, originally isolated from blood culture (strain P 4241) (MLS- and penicillin-susceptible). • S. pyogenes 02C0203, ATCC 12384, group A, type 3 (MLS-susceptible). • E. faecalis 03A1085, vancomycin susceptible clinically derived strain. • H. influenzae 54A1100, (43095 ATCC Fulghum strain) non-serotype B strain originally isolated from otitis media (macrolide and penicillin susceptible). • H. influenzae 54A1218, clinically derived non-serotype B strain (macrolide-susceptible, penicillin-resistant, TEM-1 beta-lactamase).

[3] = test system: Haemophilus influenzae 54A1100; assay: Gerbil middle ear infection in vivo time kill, H. influenzae 54A1100
[4] = test system: H. influenzae 54A1100; assay: MIC determination, H. influenzae 54A1100; format: cell-based, Haemophilus influenzae; details: Haemophilus influenzae
Method: as §1, §2

[5] = test system: acute otitis media; assay: Single 30 mg/kg dose azithromycin pediatric acute otitis media trial (Study A0661015), all subjects
Description: Craig, W. A., “Postantibiotic effects and the dosing of Macrolides, azalides, and streptogramins”, In: Zinner, S. H. et al. (editor) Expanding Indications for New Macrolides, Azalides, and Streptogramins, New York: Marel Dekker (1997), pp. 27–38.
Children six months to twelve years were enrolled if they had symptoms and signs of acute otitis media (“AOM”) for less than four weeks and middle ear effusion by acoustic reflectometry. Symptoms necessary for enrollment included ear pain or fullness, discharge from the external auditory canal, decreased hearing or fever. On physical examination they must have had one or more of the following: bulging or marked erythema of the tympanic membrane, loss of the normal light reflex or tympanic membrane landmarks, or impaired tympanic mobility on biphasic pneumatic otoscopy. The effusion was to be documented by acoustic reflectometry with an abnormal reading of 3 or higher.
Samples of middle ear fluid were obtained by tympanocentesis or, in the case of a perforated tympanic membrane, by swab. Middle ear fluid samples were obtained for culture at baseline. […] Children who vomited within thirty minutes of dosing were redosed.
A phone contact occurred on study day 5 to assess for adverse events followed by visits on days 10 and 24–28, at which time detailed clinical assessments were made and adverse events were recorded. Definitions included clinical cure (complete resolution of all signs and symptoms of AOM); improvement (partial resolution of signs and symptoms); or failure (no change or worsening of signs and symptoms, or requirement for additional antibiotic therapy for AOM). Any patient considered to have failed therapy was to have a repeat tympanocentesis.
The primary endpoint of the trial was the investigator designated cure rate at Day 24–28 for which a 95% confidence interval was computed using the normal approximation to the binomial distribution. Other endpoints analyzed included the clinical response rate by baseline pathogen at Day 24–28, the overall clinical response at Day 10, the percentage of subjects with individual signs and symptoms, as well as findings from pneumatic otoscopy and acoustic reflectometry. Only Streptococcus pneumoniae, Moraxella catarrhalis and Haemophilus influenzae were considered baseline pathogens for the purposes of these analyses.
This trial was an open-label, non-comparative study conducted at twenty-two sites from the United States, Costa Rica, Guatemala and Chile.
Not all strains are equally virulent and the growth rate and kinetics of infection may influence the outcome. In addition, H. influenzae has been a difficult organism to culture from the middle ear.

[6] = test system: pneumococcal challenge; details: single dose compared with all the other dose regimens; cited from earlier work
[7] = Azithromycin pulmonary tissue pharmacokinetics in mice; format: in vivo; details: female, CF-1, mouse, lung (pulmonary tissue), Pulmonary PK, total dose 100 mg/kg oral; for AUC(0-t): read-out: AUC(0-tlast)
Method: Blood and pulmonary tissue samples were taken starting at 0.5 h post-dose and at predetermined intervals over a 96 h period. Plasma and lung samples were prepared and maintained at −70 C. […] The lower limit of quantification (LLOQ) was 50 ng/ml. […] Interassay variability was <7%. Pharmacokinetic parameters were calculated using the non-compartmental method by WinNonlin 2.1 (Scientific Consulting, Inc.).

[8] = 66.6 mg/kg/day oral Q.D. [3 days], 48 hours post-infection
[9] = 66.6 mg/kg/day oral Q.D. [3 days], 72 hours post-infection
[10] = 66.6 mg/kg/day oral Q.D. [3 days], 96 hours post-infection
[11] = 100 mg/kg/day oral Q.D. [2 days], 48 hours post-infection
[12] = 100 mg/kg/day oral Q.D. [2 days], 72 hours post-infection
[13] = 100 mg/kg/day oral Q.D. [2 days], 96 hours post-infection
[14] = 200 mg/kg/day oral Q.D. [1 day], 48 hours post-infection
[15] = 200 mg/kg/day oral Q.D. [1 day], 72 hours post-infection
[16] = 200 mg/kg/day oral Q.D. [1 day], 96 hours post-infection
[17] = 33 mg/kg, 3 days of dosing, 33.3 mg/kg/dose
[18] = 1 day of dosing, 100 mg/kg/dose
[19] = 2 days of dosing, 50 mg/kg/dose

Compound: CC[C@H]1OC(=O)[C@H](C)[C@@H](O[C@H]2C[C@@](C)(OC)[C@@H](O)[C@H](C)O2)[C@H](C)[C@@H](O[C@@H]2O[C@H](C)C[C@H](N(C)C)[C@H]2O)[C@](C)(O)C[C@@H](C)CN(C)[C@H](C)[C@@H](O)[C@]1(C)O [Azithromycin, 9a-aza-9a-methyl-9-deoxo-9a-homoerythromycin A]
- Recoverable CFU (Bulla) [Log10.Geo.Mean] (SEM) [1, 8]: <5.2399 (1.21) log of cfu-bulla wash/ml and <5.2399 log of cfu-bulla wash/ml
- Recoverable CFU (Bulla) [Log10.Geo.Mean] (SEM) [1, 9]: <2.0000 log of cfu-bulla wash/ml
- Recoverable CFU (Bulla) [Log10.Geo.Mean] (SEM) [1, 10]: <2.0000 log of cfu-bulla wash/ml
- Recoverable CFU (Bulla) [Log10.Geo.Mean] (SEM) [1, 11]: <3.8587 (1.04) log of cfu-bulla wash/ml and <3.857 log of cfu-bulla wash/ml
- Recoverable CFU (Bulla) [Log10.Geo.Mean] (SEM) [1, 12]: <2.0000 log of cfu-bulla wash/ml
- Recoverable CFU (Bulla) [Log10.Geo.Mean] (SEM) [1, 13]: <2.0000 log of cfu-bulla wash/ml
- Recoverable CFU (Bulla) [Log10.Geo.Mean] (SEM) [1, 14]: <2.0000 log of cfu-bulla wash/ml
- Recoverable CFU (Bulla) [Log10.Geo.Mean] (SEM) [1, 15]: <2.0602 log of cfu-bulla wash/ml
- Recoverable CFU (Bulla) [Log10.Geo.Mean] (SEM) [1, 16]: <2.0000 log of cfu-bulla wash/ml
- eradication ([1]; Q.D. 2): eradication was observed
- eradication ([1]; Q.D. 3): eradication was observed
- % Clearance of Group ([1]; QD1, 48 hours post infection, <1 × 10^3 cfu/ml considered negative): 100%
- % Clearance of Group ([1]; QD1, 72 hours post infection): 100%
- % Clearance of Group ([1]; QD1, 96 hours post infection): 100%
- % Clearance of Group ([1]; QD2, 48 hours post infection): 40%
- % Clearance of Group ([1]; QD2, 72 hours post infection): 100%
- % Clearance of Group ([1]; QD2, 96 hours post infection): 100%
- % Clearance of Group ([1]; QD3, 48 hours post infection): 40%
- % Clearance of Group ([1]; QD3, 72 hours post infection): 100%
- % Clearance of Group ([1]; QD3, 96 hours post infection): 100%
- MIC [2]: 0.78 µg/mL (≈ 1.04 µM)
- Recoverable CFU (Bulla) [Log10.Geo.Mean] (SEM) [3, 8]: 5.8817 (0.44) log of cfu-bulla wash/ml and 5.8817 log of cfu-bulla wash/ml
- Recoverable CFU (Bulla) [Log10.Geo.Mean] (SEM) [3, 9]: 4.5981 (0.14) log of cfu-bulla wash/ml and 4.5981 log of cfu-bulla wash/ml
- Recoverable CFU (Bulla) [Log10.Geo.Mean] (SEM) [3, 10]: 6.1520 (0.75) log of cfu-bulla wash/ml and 6.1520 log of cfu-bulla wash/ml
- Recoverable CFU (Bulla) [Log10.Geo.Mean] (SEM) [3, 11]: 5.7572 (0.54) log of cfu-bulla wash/ml and 5.7572 log of cfu-bulla wash/ml
- Recoverable CFU (Bulla) [Log10.Geo.Mean] (SEM) [3, 12]: <2.4580 (0.46) log of cfu-bulla wash/ml and <2.4580 log of cfu-bulla wash/ml
- Recoverable CFU (Bulla) [Log10.Geo.Mean] (SEM) [3, 13]: <3.1112 (1.11) log of cfu-bulla wash/ml and <3.1112 log of cfu-bulla wash/ml
- Recoverable CFU (Bulla) [Log10.Geo.Mean] (SEM) [3, 14]: <2.0000 log of cfu-bulla wash/ml
- Recoverable CFU (Bulla) [Log10.Geo.Mean] (SEM) [3, 15]: <2.0000 log of cfu-bulla wash/ml
- Recoverable CFU (Bulla) [Log10.Geo.Mean] (SEM) [3, 16]: <2.0000 log of cfu-bulla wash/ml
- eradication, test subjects ([3]; Q.D. 2 (100 mg/kg on day 1 and 2), at 72 and at 96 hours post-infection): 4/5
- eradication in any test subject ([3]; Q.D. 3 (66.6 mg/kg on day 1, 2 and 3), 72 and 96 hours post-infection): not observed
- MIC ([4]; 54A1100, H. influenzae 54A1100): 1.56 µg/mL (≈ 2.08 µM)
- MIC ([4]; H. influenzae 54A1100, read-out: MIC): 0.5 to 1 µg/mL (≈ 0.668 to 1.34 µM)
- children with acoustic reflectometry scores improved from baseline ([5]; by day 24–28): 83%
- children with completely normal acoustic reflectometry readings ([5]; by day 24–28): 53%
- patients with complete resolution of baseline symptoms ([5]; by day 28): Ninety-two
- patients with impaired tympanic membrane motility ([5]; day 10 (93% at baseline)): 27%
- subjects with other objective signs of tympanic membrane disease ([5]; day 24–28): less than 10%
- patients with impaired tympanic membrane motility ([5]; day 24–28 (93% at baseline)): 12%
- adverse event diarrhea ([5]; single 30 mg/kg oral dose): 3%
- adverse event vomiting ([5]; single 30 mg/kg oral dose): 6%
- survival versus a pneumococcal challenge [6]: significantly increased survival
- Cmax [7, 17]: 28000 ng/mL
- Tmax [7, 17]: 12 h
- AUC(0-t) [7, 17]: 1050 µg·h/mL
- Cmax [7, 18]: 40000 ng/mL
- Tmax [7, 18]: 4 h
- AUC(0-t) [7, 18]: 970 µg·h/mL
- Cmax [7, 19]: 31000 ng/mL
- Tmax [7, 19]: 28 h
- AUC(0-t) [7, 19]: 870 µg·h/mL
